Publication PMC9993459, “A novel selective spleen tyrosine kinase inhibitor SKI-O-703 (cevidoplenib) ameliorates lupus nephritis and serum-induced arthritis in murine models” (Clinical and Experimental Immunology, 2022)
pIC50: −log10 of the molar value. “Also recorded” adds a separate entry of the source.

Columns and labels:
[1] = target: AuroraB (Homo sapiens, UniProt Q96GD4); experiment: Kinase assay (LANCE Ultra TR-FRET), AuroraB; assay type: biochemical
Procedure: Kinase assays were conducted in 384-well plates using LANCE ultra 66 time-resolved fluorescence resonance energy transfer (TR-FRET) methods, according to the manufacturer’s instructions (Perkin-Elmer). In brief, each kinase was pre-incubated with a serially diluted compound for 30 min, incubated with ULight poly-GT peptide substrate and ATP for up to 1 h. Thirty minutes after adding Eu-labeled anti-phosphopeptides Ab diluted in LANCE Detection Buffer, LANCE signals were measured with an EnVision multilabel reader (Perkin-Elmer).

[2] = target: T1, phosphorylated Syk (p-Syk) in Ramos cells (Homo sapiens, UniProt P43405); experiment: p-Syk ELISA in anti-IgM-stimulated Ramos cells (BCR signal); assay type: cell-based
T1 construct: endogenous in cells; host or cells: Ramos (ATCC), THP-1 (ATCC), human CD14+ monocytes (Lonza)
Procedure: (§1) THP-1 and Ramos cell lines and human CD14^+ monocytes were purchased from the American Type Culture Collection (ATCC) and Lonza, respectively. After treatment with Syk inhibitors for 1 h, THP-1 cells and monocytes were stimulated for 15 min with 100 μg/ml human IgG (Invitrogen), and Ramos cells were stimulated with 2 μg/ml anti-human IgM monoclonal Ab (mAb) (Bathyl). Cells were lysed in RIPA buffer containing 1% NP-40, 1% sodium deoxycholate, 0.1% SDS, and a mixture of protease and phosphatase inhibitors (Thermo Scientific). The lysates were assayed by standard immunoblotting methods and ELISA. Primary Abs used for immunoblotting were anti-phospho-Syk ([…]), anti-phospho-Vav (Y174), anti-phospho-PLCγ1 (Y1217) and anti-phospho-BLNK (Y96) Abs (all from Cell Signaling). ELISAs to detect phospho-Syk (Y525/526) were performed according to the manufacturer’s protocol (Cell Signaling).
Ramos cells (A), human primary monocytes (B), and THP cells (C) were pretreated with inhibitors at the indicated concentrations and stimulated with anti-human IgM (A) and human IgG (B and C). […] The relative intensities of protein phosphorylation levels were quantitated with reference to each lane of β-actin control bands. (D) Ramos cells, human primary monocytes, and THP cells were treated as in A–C for 24 h and levels of phosphorylated Syk (p-Syk) were measured by ELISA.

[3] = system: Syk phosphorylation (Y525/526), BLNK, PLCγ1, Vav1; experiment: Immunoblotting of phosphorylated Syk and downstream molecules in Ramos cells, human primary monocytes and THP-1 cells; assay type: cell-based; settings: all three cell lines, dose-dependent, more potent than R406
Procedure: as §1
Figure 1: in vitro inhibitory effects of SKI-O-592 and -703 on Syk in B cells and monocytes. […] The relative intensities of protein phosphorylation levels were quantitated with reference to each lane of β-actin control bands. (D) Ramos cells, human primary monocytes, and THP cells were treated as in A–C for 24 h and levels of phosphorylated Syk (p-Syk) were measured by ELISA. […] A representative FACS profile and data on the dose-response of mean fluorescence intensity (MFI) are shown. […]

[4] = system: mouse primary T cells; experiment: Annexin V/7-AAD apoptosis assay in TCR-engaged primary T cells; assay type: cell-based; settings: up to 5 μM
Procedure: Supplementary F igure 1. SKI -O-592 and - 703 s p a re TCR- mediated signaling in T cells
(A) The stru cture of SKI-O-703. (B-D) Human per ipheral T cells sorted fro m human peripheral blood mononuclear cells (B and D) and mouse primary T cells sorted from spleen (C ) wer e stimulated with 5 µ g/ml anti- CD3 and 2 µ g/ml anti- CD28 m Abs in the presence or absence of inhibitors as indicated. Af ter one hour (B) and 24 h ours (C and D) of culture, cells we re assaye d […]
by immunoblotting (B), FA C S ( C), and ELISA (D). […]
of Zap70 and its downstream target PLCγ1. It’s effect on the suppression of IL-2 production […]
Supplementary F igure 2. Gating strategy for FACS of spleen cells
Erythrocyte-d epleted mo use spleen cells w ere assayed by FACS. Whole live cells were gated as shown: plasma cells (C D19lo/- CD138hi), GC B cells (CD19+ CD138- GL-7h i FA S hi), follicular B cells (CD19+ CD43- CD23hi CD21-), marginal zone B cells (CD19+ C D43- CD21hi CD23lo ), and Tfh cells (CD4+ CXCR5+ PD-1hi).
Supplementary Figure 3. Differential susceptibility of short-lived and long-lived plasma […]
When spleen cells from NZB/W mice were assay ed by FACS as in Fig. 5, they were stained intracellularly with anti- Ki-67 mAb to distinguish Ki-67+ dividing cells from Ki-67- non-dividing cells among t h e CD138hi population. […]

AuroraB, sequence (Q96GD4 whole entry): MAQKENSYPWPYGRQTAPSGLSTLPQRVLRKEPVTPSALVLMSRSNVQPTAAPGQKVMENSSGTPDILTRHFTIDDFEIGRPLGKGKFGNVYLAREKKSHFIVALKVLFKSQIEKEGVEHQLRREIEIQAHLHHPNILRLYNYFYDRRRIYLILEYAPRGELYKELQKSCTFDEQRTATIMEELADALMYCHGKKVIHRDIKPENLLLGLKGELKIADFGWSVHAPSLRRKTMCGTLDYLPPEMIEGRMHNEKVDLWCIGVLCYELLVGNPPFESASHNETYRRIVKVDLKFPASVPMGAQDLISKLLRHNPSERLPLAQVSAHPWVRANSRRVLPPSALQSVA

Structure (SMILES) | Ratio to Syk (AuroraB) ([1]; IC50 ratio to Syk) | pIC50 ([1]; kinase activity, TR-FRET) | pIC50 [2] | Phosphorylation of Syk Y525/526 and downstream BLNK, PLCγ1, Vav1 (immunoblotting) [3] | Proportions of early and late apoptotic T cells [4]
Cc1nn(-c2ccnc(Nc3ccc4c(c3)c(C(=O)C3CC3)cn4C)n2)cc1CN1C[C@H](O)CO1 [SKI-O-592] | >1623 | < 5.00 | 6.55 | inhibited phosphorylation | –
CS(=O)(=O)O.CS(=O)(=O)O.Cc1nn(-c2ccnc(Nc3ccc4c(c3)c(C(=O)C3CC3)cn4C)n2)cc1CN1C[C@H](O)CO1 [SKI-O-703, (S)-cyclopropyl(5-((4-(4-((4-hydroxyisoxazolidin-2-yl)methyl)-3-methyl-1H-pyrazol-1-yl)pyrimidin-2-yl)amino)-1-methyl-1H-indol-3-yl)methanone dimesylate] | – | – | – | – | did not promote apoptotic cell death; also recorded: failed to increase
